Laboratory results published in US20150353495A1 (PORTOLA PHARMACEUTICALS, INC., priority 2010, published 2015).

What was measured:
Type in all cases: biochemical
JAK2 = biological target: T1, JAK2 (Homo sapiens, UniProt O60674); assay: Z'-LYTE kinase assay JAK2
T1 construct: 5 μl of catalytic domain recombinant Kinase enzyme+Tyr peptide substrate (Invitrogen, CA); purchased Invitrogen
Procedure: (§1) JAK and TYK2 tyrosine phosphorylation activity is measured using the Z′-LYTE™ Technology developed by Invitrogen Corporation (Carlsbad, Calif.). For JAK1, JAK2 and JAK3 the Z′-LYTE™ Kinase Assay Kit-Tyr6 Peptide (part number PV4122) was used. For TYK2 the Z′-LYTE™ Kinase Assay Kit-Tyr6 Peptide (part number PV3192) was used. The Z′-LYTE™ biochemical assay employs a fluorescence resonance energy transfer (FRET) coupled-enzyme format and is based on the differential sensitivity of phosphorylated and non-phosphorylated peptides to proteolitic cleavage. The assay uses a synthetic peptide substrate that is labelled with a donor fluorophore (coumarin) and an acceptor fluorophore (fluorescein) that make up a FRET pair. In the primary reaction (the Kinase Reaction), the kinase transfers the γ-phosphate of ATP to a single tyrosine residue on the substrate, while the presence of a kinase inhibitor in the primary reaction suppresses phosphorylation. In the secondary reaction (the Development Reaction), a site-specific protease (the Development Reagent) is added. The development buffer quenches the Kinase Reaction, while the protease recognizes and cleaves non-phosphorylated Z′-LYTE™ peptide substrate. Cleavage disrupts FRET between the donor and acceptor fluorophores on the non-phosphoryleted substrate, while uncleaved, phosphorylated substrate maintains FRET.
(§2) To test the ability of candidate molecules to inhibit JAK tyrosine phosphorylation activity, molecules are reconstituted in 100% DMSO and serially diluted 1:10 in polypropylene v-bottom microtiter plates. The candidate molecules are then diluted 1:25 into kinase buffer and 2.5 μl transferred into duplicate wells of a 384 well low volume black microtiter assay plate (Corning, USA). The final DMSO concentration in the assay is 1%. The kinase reaction contains 2.5 μl of a candidate molecule, 5 μl of catalytic domain recombinant Kinase enzyme+Tyr peptide substrate (Invitrogen, CA) and 2.5 μl ATP (Invitrogen, CA). The kinase reaction is allowed to procede for 1 hour at room temperature. The protease reaction is initiated by the addition of 5 μl Development Reagent (Invitrogen, CA). After 1 hour incubation at room temperature the fluorescence is measured using a FlexStation plate reader (Molecular Devices, Sunnyvale, Calif.).

JAK1 = biological target: T2, JAK1 (Homo sapiens, UniProt P23458); assay: Z'-LYTE kinase assay JAK1
T2 construct: 5 μl of catalytic domain recombinant Kinase enzyme+Tyr peptide substrate (Invitrogen, CA); purchased Invitrogen
Procedure: as §1, §2

JAK3 = biological target: T3, JAK3 (Homo sapiens, UniProt P52333); assay: Z'-LYTE kinase assay JAK3
T3 construct: 5 μl of catalytic domain recombinant Kinase enzyme+Tyr peptide substrate (Invitrogen, CA); purchased Invitrogen
Procedure: as §1, §2

T2 sequence (P23458 875-1153 limits assumed): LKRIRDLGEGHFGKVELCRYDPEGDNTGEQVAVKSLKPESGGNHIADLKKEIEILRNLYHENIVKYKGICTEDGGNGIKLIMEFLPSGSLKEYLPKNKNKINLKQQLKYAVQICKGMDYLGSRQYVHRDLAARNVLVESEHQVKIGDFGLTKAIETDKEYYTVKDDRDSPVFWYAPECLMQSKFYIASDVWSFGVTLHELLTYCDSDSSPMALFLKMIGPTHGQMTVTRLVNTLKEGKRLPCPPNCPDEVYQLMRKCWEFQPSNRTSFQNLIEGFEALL
T3 sequence (P52333 822-1111 limits assumed): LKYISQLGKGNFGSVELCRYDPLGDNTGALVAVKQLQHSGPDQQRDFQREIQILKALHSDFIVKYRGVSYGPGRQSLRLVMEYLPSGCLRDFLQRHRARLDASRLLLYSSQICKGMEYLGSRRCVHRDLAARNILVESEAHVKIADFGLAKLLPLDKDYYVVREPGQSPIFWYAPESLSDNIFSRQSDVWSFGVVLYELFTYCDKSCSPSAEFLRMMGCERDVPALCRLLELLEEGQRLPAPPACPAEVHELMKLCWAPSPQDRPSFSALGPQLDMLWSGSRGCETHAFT
T1 sequence (O60674 849-1124 limits assumed): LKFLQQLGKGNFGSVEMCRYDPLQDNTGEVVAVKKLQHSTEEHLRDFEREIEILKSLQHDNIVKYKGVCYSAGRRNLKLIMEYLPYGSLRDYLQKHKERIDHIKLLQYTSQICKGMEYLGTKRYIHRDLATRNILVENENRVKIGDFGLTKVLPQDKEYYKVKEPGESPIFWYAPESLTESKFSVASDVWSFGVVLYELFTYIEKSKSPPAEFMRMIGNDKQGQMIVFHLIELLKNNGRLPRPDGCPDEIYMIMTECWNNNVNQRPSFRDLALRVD

Structure (SMILES) | IC50 (JAK2) | IC50 (JAK1) | IC50 (JAK3)
CS(=O)(=O)N1CCC(Nc2cc(Nc3ccc(C4CCOCC4)cc3)ncc2C(N)=O)CC1 [Example 165, 4-(1-(methylsulfonyl)piperidin-4-ylamino)-6-(4-(tetrahydro-2H-pyran-4-yl)phenylamino)nicotinamide] | > 1000 nM | 100 to 1000 nM | 100 to 1000 nM
COc1ccc(Nc2cc(NCc3cccc(F)n3)c(C(N)=O)cn2)cc1 [Example 315, 4-((6-fluoropyridin-2-yl)methylamino)-6-(4-methoxyphenylamino)nicotinamide] | 100 to 1000 nM | 100 to 1000 nM | 10 to 100 nM
CC(=O)N1CCC(CNc2cc(Nc3ccc(C(=O)N4CCC4)cc3)ncc2C(N)=O)CC1 [Example 50, 4-((1-acetylpiperidin-4-yl)methylamino)-6-(4-(azetidine-1-carbonyl)phenylamino)nicotinamide] | > 1000 nM | > 1000 nM | > 1000 nM
NC(=O)c1cnc(Nc2ccc(C3CCOCC3)cc2)cc1NCC1CCOCC1 [Example 140, 4-((tetrahydro-2H-pyran-4-yl)methylamino)-6-(4-(tetrahydro-2H-pyran-4-yl)phenylamino)nicotinamide] | 100 to 1000 nM | > 1000 nM | 100 to 1000 nM
NC(=O)c1cnc(Nc2ccc(CC(=O)N3CCOCC3)cc2)cc1NCc1ccccc1 [Example 330, 4-(benzylamino)-6-(4-(2-morpholino-2-oxoethyl)phenylamino)nicotinamide] | 100 to 1000 nM | 100 to 1000 nM | 1 to 10 nM
NC(=O)c1cnc(Nc2ccc(C3CCN(S(=O)(=O)C4CC4)CC3)cc2)cc1NCc1ccccc1F [Example 113, 6-(4-(1-(cyclopropylsulfonyl)piperidin-4-yl)phenylamino)-4-(2-fluorobenzylamino)nicotinamide] | > 1000 nM | > 1000 nM | 10 to 100 nM
CN(C)C(=O)c1cc(Nc2cc(NCc3ccccc3)c(C(N)=O)cn2)ccc1N(C)C [Example 440, 4-(benzylamino)-6-(4-(dimethylamino)-3-(dimethylcarbamoyl)phenylamino)nicotinamide] | 100 to 1000 nM | 100 to 1000 nM | 10 to 100 nM
COc1ccc(Nc2cc(NCc3cccc(S(C)(=O)=O)c3)c(C(N)=O)cn2)cc1 [Example 301, 6-(4-methoxyphenylamino)-4-(3-(methylsulfonyl)benzylamino)nicotinamide] | > 1000 nM | > 1000 nM | 10 to 100 nM
COC(=O)N(C)c1ccc(Nc2cc(NCc3cccc(F)n3)c(C(N)=O)cn2)cc1 [Example 487] | 100 to 1000 nM | 100 to 1000 nM | 10 to 100 nM
CC(C)c1cccc(Nc2cc(NCc3ccccc3F)c(C(N)=O)cn2)c1 [Example 162, 4-(2-fluorobenzylamino)-6-(3-isopropylphenylamino)nicotinamide] | > 1000 nM | > 1000 nM | 100 to 1000 nM
COC(=O)N(C)c1ccc(Nc2cc(NCc3cccc4ccsc34)c(C(N)=O)cn2)cc1 [Example 465, methyl 4-(4-(benzo[b]thiophen-7-ylmethylamino)-5-carbamoylpyridin-2-ylamino)phenyl(methyl)carbamate] | 100 to 1000 nM | > 1000 nM | 1 to 10 nM
COC(=O)N(C)c1ccc(Nc2cc(NCc3cccc4[nH]ccc34)c(C(N)=O)cn2)cc1 [Example 474, methyl 4-(4-((1H-indol-4-yl)methylamino)-5-carbamoylpyridin-2-ylamino)phenyl(methyl)carbamate] | 10 to 100 nM | 10 to 100 nM | 1 to 10 nM
CN(C)C(=O)C1CCN(c2ccc(Nc3cc(NCc4ccccc4)c(C(N)=O)cn3)cc2)CC1 [Example 343, 4-(benzylamino)-6-(4-(4-(dimethylcarbamoyl)piperidin-1-yl)phenylamino)nicotinamide] | 10 to 100 nM | 100 to 1000 nM | 1 to 10 nM
CN(C)C(=O)c1ccc(Nc2cc(NCc3cccc(-n4ccnc4)c3)c(C(N)=O)cn2)cc1 [Example 224, 4-(3-(1H-imidazol-1-yl)benzylamino)-6-(4-(dimethylcarbamoyl)phenylamino)nicotinamide] | 100 to 1000 nM | 100 to 1000 nM | 1 to 10 nM
NC(=O)c1cnc(Nc2cccc(F)c2)cc1NCc1cncc(F)c1 [Example 306, 6-(3-fluorophenylamino)-4-((5-fluoropyridin-3-yl)methylamino)nicotinamide] | 100 to 1000 nM | 100 to 1000 nM | 10 to 100 nM
NC(=O)c1cnc(Nc2ccc3ccncc3c2)cc1NCc1ccccc1 [Example 89, 4-(benzylamino)-6-(isoquinolin-7-ylamino)nicotinamide] | > 1000 nM | > 1000 nM | 100 to 1000 nM
CC(=O)N(C)c1ccc(Nc2cc(NCc3cccc4[nH]ccc34)c(C(N)=O)cn2)cc1 [Example 469, 4-((1H-indol-4-yl)methylamino)-6-(4-(N-methylacetamido)phenylamino)nicotinamide] | 10 to 100 nM | 10 to 100 nM | 1 to 10 nM
CS(=O)(=O)c1ccc(Nc2cc(NCc3cccc(-c4cccnc4)c3)c(C(N)=O)cn2)cc1 [Example 415] | > 1000 nM | > 1000 nM | 10 to 100 nM
CC(C)(C)CNc1cc(Nc2ccc(C3CCOCC3)cc2)ncc1C(N)=O [Example 155, 4-(neopentylamino)-6-(4-(tetrahydro-2H-pyran-4-yl)phenylamino)nicotinamide] | 100 to 1000 nM | 100 to 1000 nM | 100 to 1000 nM
CN1C(=O)COc2ccc(Nc3cc(NCc4ccccc4)c(C(N)=O)cn3)cc21 [Example 85, 4-(benzylamino)-6-(4-methyl-3-oxo-3,4-dihydro-2H-benzo[b][1,4]oxazin-6-ylamino)nicotinamide] | > 1000 nM | > 1000 nM | 10 to 100 nM
Cc1cc(Nc2cc(NCc3cccc4ccsc34)c(C(N)=O)cn2)ccc1C(=O)N1CCOCC1 [Example 459, 4-(benzo[b]thiophen-7-ylmethylamino)-6-(3-methyl-4-(morpholine-4-carbonyl)phenylamino)nicotinamide] | 10 to 100 nM | 100 to 1000 nM | 1 to 10 nM
CCC(=O)N1CCC(c2ccc(Nc3cc(NC4CCOCC4)c(C(N)=O)cn3)cc2)CC1 [Example 146, 6-(4-(1-propionylpiperidin-4-yl)phenylamino)-4-(tetrahydro-2H-pyran-4-ylamino)nicotinamide] | 100 to 1000 nM | > 1000 nM | 100 to 1000 nM
CN(C(=O)C1CC1)c1ccc(Nc2cc(NCc3cccc(F)n3)c(C(N)=O)cn2)cc1 [Example 489, 4-((6-fluoropyridin-2-yl)methylamino)-6-(4-(N-methylcyclopropanecarboxamido)phenylamino)nicotinamide] | 100 to 1000 nM | 100 to 1000 nM | 10 to 100 nM
CN(C)C(=O)c1ccc(Nc2cc(NCc3cccc4ccn(C)c34)c(C(N)=O)cn2)cc1 [Example 318, 6-(4-(dimethylcarbamoyl)phenylamino)-4-((1-methyl-1H-indol-7-yl)methylamino)nicotinamide] | 100 to 1000 nM | > 1000 nM | 10 to 100 nM
Cn1c(CNc2cc(Nc3ccc(C4CCOCC4)cc3)ncc2C(N)=O)nc2ccccc21 [Example 182, 4-((1-methyl-1H-benzo[d]imidazol-2-yl)methylamino)-6-(4-(tetrahydro-2H-pyran-4-yl)phenylamino)nicotinamide] | > 1000 nM | > 1000 nM | > 1000 nM
